Laboratory results reported in patent US20220040263A1, “COMPANION DIAGNOSTIC FOR COMBINATION LENALIDOMIDE AND ERYTHROPOIETIN TREATMENT” (H. Lee Moffitt Cancer Center and Research Institute, Inc., priority 2016, published 2022).

How the values were obtained:
[1] = system: Jak2 and STAT5 phosphorylation in UT7 cells; experiment: Jak2 and STAT5 phosphorylation in UT7 cells with JAK or Src kinase inhibitors (Western); assay type: cell-based
Procedure: 10×10^7 UT7 cells were serum starved then treated with SKI 606 or AG490 for 30 minutes, CC5013 for 2 hours, and stimulated with EPO (1 U/ml) for 10 minutes at 37° C. Cells were lysed and […] run on a 4-15% Gradient gel (Bio-rad). Antibodies included p-STAT5 (Upstate, 1:1000 in 5% TBS/milk), total STAT5 (Cell Signaling, 1:10000 in 5% TBS/milk), and p-Jak2 (Santa Cruz, 1:500 in 5% TBS/milk). Blots were developed with an ECL detection kit (Amersham).
To further evaluate the mechanism by which lenalidomide enhances the EPO-R signal, STAT5 activation was assessed in response to EPO+lenalidomide treatment using selective pharmacologic inhibitors of JAK (AG490) or Src ([…]) kinases [FIG. 4].

[2] = system: Csk; experiment: Csk and phospho-Lyn507 in UT7 cells by Western immunoblot; assay type: cell-based; conditions: lenalidomide alone or combined with EPO
Procedure: Serum starved UT7 cells were treated with either vehicle alone (control), CC5013 (2 hours), EPO (30 minutes), or CC5013 followed by addition of EPO at the concentrations indicated. Cells were lysed and assayed for β-actin (Sigma), phospho-Lyn507, total Lyn and Csk (Cell Signaling) by Western immunoblot as described previously. Protein loading was normalized to β-actin, and immunoblot signals of phosphorylated Lyn were normalized to total Lyn and actin by band densitometry.
The Lyn/Src signal response is inhibited through both Csk phosphorylation of the C-terminal tyrosine residue enabled by SFK phosphorylation of the Csk-binding protein (Csk/Pag), and by the action of the CD45 PTP that dephosphorylatse the SFK activation loop tyrosine. There were minor changes in phosphorylation of the C-terminal tyrosine of Src and Lyn kinases despite significant increases in phosphorylation of the Src activation loop tyrosine [FIGS. 5 and 6]. A minor reduction in C-terminal tyrosyl phosphorylation relative to total Lyn was associated with a decrease in total Csk that was apparent with treatment with either lenalidomide alone or when combined with EPO [FIG. 6].

[3] = system: AML-EH5q cells; experiment: Apoptosis by Annexin-V/PI flow cytometry in AML-EH5q cells; assay type: cell-based; conditions: AML-EH5q (5q-deleted) cells, 24 hours
Procedure: (§1) AML-EH5q (FIG. 8A) and U937 (FIG. 8B) cells were exposed to lenalidomide, thalidomide or vehicle at the concentrations indicated for 24 hours in IMDM and 20% FBS and apoptosis assessed by flow cytometry using Annexin-V/PI staining. Briefly, cells are incubated for 20 minutes at room temperature in 50 mM HEPES (pH 7.4) and 150 mM NaCl containing 2 mM calcium chloride with a mixture of 1 μg/mLAnnexin V-FITC (Boehringer Mannhein, Mannhein, Germany) and 2.5 μg/mL propidium iodide (PI; Sigma-Aldrich) before analysis.
(§2) The hematologic effects of lenalidomide could derive from dual effects that are karyotype-dependent, i.e., (1) the potentiation of erythropoiesis in non-del5q erythroid precursors, and (2) selective suppression of del5q clones. To confirm that lenalidomide is selectively cytotoxic to del-5q clones, an AML cell line transformed from an MDS patient with isolated 5q31 deletion was cultivated and the cell line successfully maintained in suspension culture with recombinant myeloid growth factor supplementation. This cell line [designated AML-EH5q] is an AML cell line that harbors the isolated 5q-deletion. […] To evaluate the selectivity of lenalidomide cytotoxic for del5q clones, apoptotic response to lenalidomide and thalidomide was compared in AML-EH5q and U937 (non-del5q) cells by flow cytometry. […] Viability was unaffected at all concentrations for both agents in U937 cells.

[4] = system: U937 (non-del5q) cells; experiment: Apoptosis by Annexin-V/PI flow cytometry in U937 cells; assay type: cell-based; conditions: 24 hours, all concentrations
Procedure: as §1, §2

[5] = biological target: T1, rhu-CDC25C (Homo sapiens, UniProt P30307); experiment: CDC25C phosphatase OMFP hydrolysis assay; assay type: biochemical
T1 construct: purchased BIOMOL
T1 sequence (P30307 1-473): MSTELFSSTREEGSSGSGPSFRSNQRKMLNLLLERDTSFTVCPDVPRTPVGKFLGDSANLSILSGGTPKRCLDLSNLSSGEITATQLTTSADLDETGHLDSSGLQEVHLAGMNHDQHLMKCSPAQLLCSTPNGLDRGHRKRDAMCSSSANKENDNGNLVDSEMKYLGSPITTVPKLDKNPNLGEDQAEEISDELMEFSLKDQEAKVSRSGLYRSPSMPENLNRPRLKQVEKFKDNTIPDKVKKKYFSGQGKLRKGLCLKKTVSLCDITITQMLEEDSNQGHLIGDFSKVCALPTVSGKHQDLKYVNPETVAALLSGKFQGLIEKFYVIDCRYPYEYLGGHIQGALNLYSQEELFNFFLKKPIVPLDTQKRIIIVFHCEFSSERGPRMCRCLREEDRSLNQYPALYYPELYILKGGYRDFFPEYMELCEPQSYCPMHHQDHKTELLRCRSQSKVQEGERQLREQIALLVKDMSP
Procedure: 200 U of rhu-CDC25C (BIOMOL) was incubated in assay buffer (100 mM Tris-HCL, pH 8.2, 40 mM NaCl, 1 mM DTT, 0.1% BSA, and 20% glycerol) for 1 hour at 37 C with the indicated inhibitors CC-5013, Thalidomide, and CDC25 Phosphatase Inhibitor, NSC, Calbiochem) at the concentrations indicated. The substrate OMFP (3-0-Methylfluorescein phosphate cyclohexylammonium salt, Sigma) was added at 500 μM and tubes were incubated for 60 minutes at 37° C. Samples were read on a spectrophotometer at 477 nm. Percent activity was calculated by subtracting background absorbance and dividing each sample by the CDC25C+control.
To determine if lenalidomide inhibits CDC25C phosphatase activity, rhu-CDC25C PTP inhibition by lenalidomide and thalidomide were compared to a CDC25C selective inhibitor using the 3-o-methylfluorescein phosphate (OMFP) hydrolysis assay [FIG. 10].

[6] = system: lower risk MDS patients who have failed treatment with rhu-EPO; conditions: cited from earlier work

For `Nc1cccc2c1CN(C1CCC(=O)NC1=O)C2=O` (centres unmarked) [lenalidomide, 3-(4-amino-1-oxo-1,3-dihydro-2H-isoindol-2-yl)piperidine-2,6-dione], the “EPO-induced Jak2-phosphorylation” value ([1]; lenalidomide + EPO (Lane 7)) was “further augmented”, the Jak2-phosphorylation ([1]; lenalidomide alone (Lane 2)) was “increased” and the “total Csk” value [2] was “decrease”. For the same molecule, the “induction of programmed cell death (apoptosis)” value [3] was “concentration dependent induction of programmed cell death”, the “induction of programmed cell death (apoptosis)” value ([3]; listed as Lenalidomide) was “selectively induced cell death” and the viability / apoptosis [4] was “unaffected”. The “inhibition of CDC25C phosphatase activity” value [5] was “potent and selective inhibitor”, the cytogenetic response ([6]; del5q patients) was 74% and the transfusion-independence ([6]; del5q patients) was 67%. The erythroid response ([6]; patients with chromosome 5q31 interstitial deletion (del5q)) was 76% and the MER rate ([6]; patients with normal or alternate karyotypes) was 25-30%.
